Results: patent publication US5185338A, “Medicament for treating cerebral insufficiency diseases, novel 2-(1-piperazinyl)-4-phenylcycloalkanopyrimidine derivatives, and process for the production thereof” (Dainippon Pharmaceutical Co., Ltd., priority 1989, dated 1993)
pIC50: −log10 of the molar value.

Assays:
[1] = Chem. Pharm. Bull., 31, 2254-2261 (1983); cited from earlier work
[2] = system: scopolamine-induced hypermotility; experiment: Antagonistic effect on scopolamine-induced hypermotility; type: in vivo, mice (Std-ddY strain); conditions: Mus musculus, po, read-out: Inhibitory ratio (% antagonism of scopolamine-induced hypermotility)
Experimental: Antagonistic effect on scopolamine-induced hypermotility:
A test compound was orally administered to each mouse, and 90 minutes after the administration, each one test animal was placed within a test cage (25×35×30 cm). After 30 minutes, scopolamine hydrobromide (1 mg/kg) was intraperitoneally administered to the mice and then the motility was measured with Animex activity meter for 30 minutes. The effect of test compounds was expressed as % antagonism (complete antagonism to the motility level of non-dosed animals=100%).

[3] = system: scopolamine-induced deficit of spontaneous alternation behavior; experiment: Improving effect on scopolamine-induced deficit of spontaneous alternation behavior (T-maze); type: in vivo, mice (Std-ddY strain); conditions: scopolamine hydrobromide 1 mg/kg, non-dosed mice=100%
Text: Improving effect on scopolamine-induced deficit of spontaneous alternation behavior:
A group of 15-25 male mice (Std-ddY strain, 22-28 g) was used for evaluating effect of the test compounds on scopolamine-induced deficit of spontaneous alternation in a T-maze, which is a known animal model of memory impairment due to hypofunction of the cholinergic nervous system. The T-maze used consists of a stem and two arms which are 25 cm long, 5 cm wide and 10 cm high. The first 10 cm of the stem and last 10 cm of each arm are divided by sliding doors into start and goal boxes.
A test compound and scopolamine hydrobromide (1 mg/kg) were intraperitoneally administered to each mouse, and after 30 minutes a test of spontaneous alternation task in the T-maze was continuously repeated for 8 trials. Commonly, naive mice alternate each (right and left) goal box in turn, but scopolamine-treated animals tend to enter the same goal box repeatedly. The effect of the test compounds was expressed as % improvement (complete improvement to the alternation level of non-dosed mice=100%).

[4] = system: cycloheximide-induced amnesia of passive avoidance response; experiment: Improving effect on cycloheximide-induced amnesia of passive avoidance response; type: in vivo, mice (Std-ddY strain); conditions: cycloheximide 60 mg/kg s.c., retention trial at 24 hours, non-dosed animals=100%
Text: Improving effect on cycloheximide-induced amnesia of passive avoidance response:
Anti-amnesic effect of the test compounds was examined using mice given cycloheximide which is a known amnesia-inducing agent.
A group of 15-20 male mice (Std-ddY strain, 27-33 g) was subjected to training and retention trials for a passive avoidance task in a step-down apparatus (30×30×50 cm) with a grid floor and a wooden platform (4×4×4 cm) in a center of the floor. In the training trial, each mouse was first placed on the platform, and when the mouse stepped down on the grid floor, an electric shock (1 Hz, 0.5 sec, 60 VDC) was delivered to the feet for 15 seconds. Immediately after the training trial, cycloheximide (60 mg/kg, s.c.) and a test compound (i.p.) were administered. The retention trial was carried out 24 hours thereafter, and the time from placing again each mouse on the platform until stepping down on the grid floor (step-down latency) was measured. The step-down latency in the retention trial was markedly shortened by treatment of cycloheximide (amnesia). The effect of test compounds was assessed by % improvement (complete improvement to the latency level of non-dosed animals=100%).

[5] = system: sodium nitrite-induced anemic hypoxia; experiment: Protective effect on sodium nitrite-induced anemic hypoxia; type: in vivo, mice (Std-ddY strain); conditions: 10 mg/kg i.p., 2 hours before sodium nitrite 225 mg/kg i.p.; vs sodium nitrite alone
Text: Protective effect on sodium nitrite-induced anemic hypoxia:
It is known that sodium nitrite (NaNO2) induces anemic hypoxia by converting hemoglobin to metohemoglobin, resulting in a severe impairment of brain function and ultimately in death. Based on the above knowledge, prolongation of survival time after sodium nitrite treatment was used as an index for antihypoxic effect of the test compounds.
A group of 20 male mice (Std-ddY strain, 25-30 g) was intraperitoneally given a test compound (10 mg/kg), and 2 hours after the treatment with the test compound, a lethal amount (225 mg/kg) of sodium nitrite was intraperitoneally administered, and then, the survival time of each mouse was measured. The effect of the test compounds was assessed by the prolongation rate (%) of survival time compared with that of the animals treated with sodium nitrite alone.

[6] = target: T1, dopamine (D2) receptor (Rattus norvegicus, UniProt P61169); experiment: Dopamine (D2) receptor binding assay, [3H] spiperone; set-up: species or system rats; conditions: rat brain crude synaptosome fractions
T1 construct: Crude synaptosome fractions prepared from some brain regions in rats were used as the receptor sources; from tissue
Experimental: (§1) Effect of binding to dopamine (D2), serotonin (S1, S2) and adrenaline (α1) receptor (in vitro receptor binding assay):
(§2) Dopamine (D2), serotonin (S1, S2) and adrenaline (α1) receptor binding assays were carried out according to the methods of I. Creese et al. [Eur. J. Pharmacol., 46, 377 (1977)], S. J. Peroutka et al. [Mol. Pharmacol., 16, 687 (1979)], J. E. Leysen et al. [Mol. Pharmacol., 21, 301 (1982)], and D. C. U'Prichard et al. [Mol. Pharmacol., 13, 454 (1977)], respectively.
(§3) Crude synaptosome fractions prepared from some brain regions in rats were used as the receptor sources, and [^3 H] spiperone (D2), [^3 H] serotonin (S1), [^3 H] ketanserin (S2) and [^3 H] WB-4101 (α1) were used as the labelled ligands. The binding assay was performed by incubating aliquots of synaptosome fraction in buffer solution (final volume 1 ml) containing the receptor source and the labelled ligand in the presence of a test compound having various concentration thereof for a fixed time. The assay was terminated by rapid filtration through Whatman GF/B glass fiber filters attached to a cell-harvester (Brandel) and radioactivity on the filters was counted with a scintillation counter. Specific binding was calculated as a difference between the amount of radioactivity in the assay group and that in the control group which was separately measured likewise in the presence of an excess amount of an unlabelled ligand [spiperone (D2), serotonin (S1), methysergide (S2) and prazosin (α1)] instead of […]. The IC50 value of the test compounds (i.e. the concentration causing 50% inhibition of the labelled ligand specific binding) was determined by probit analysis.

[7] = target: serotonin (S1) receptor; experiment: Serotonin (S1) receptor binding assay, [3H] serotonin; set-up: species or system rats; conditions: rat brain crude synaptosome fractions
Experimental: as §1, §2, §3

[8] = target: T2, serotonin (S2) receptor (Rattus norvegicus, UniProt P14842); experiment: Serotonin (S2) receptor binding assay, [3H] ketanserin; set-up: species or system rats; conditions: rat brain crude synaptosome fractions
T2 construct: Crude synaptosome fractions prepared from some brain regions in rats were used as the receptor sources; from tissue
Experimental: as §1, §2, §3

[9] = target: adrenaline (α1) receptor; experiment: Adrenaline (α1) receptor binding assay, [3H] WB-4101; set-up: species or system rats; conditions: rat brain crude synaptosome fractions
Experimental: as §1, §2, §3

[10] = system: brain serotonin metabolite, 5-hydroxyindole-3-acetic acid (5-HIAA); experiment: Increasing effect on concentration of brain serotonin metabolite (5-HIAA); type: in vivo, mice (Std-ddY strain); conditions: Mus musculus, 2 h, two hours after treatment, 5-HIAA level of non-dosed animals=100%
Text: Increasing effect on concentration of brain serotonin metabolite:
A group of 5 male mice (Std-ddY strain, 25-30 g) was used for examining effect of the test compounds on concentration of a brain serotonin metabolite, 5-hydroxyindole-3-acetic acid (5-HIAA).
Mice were killed by decapitation two hours after the treatment with the test compounds. Brains were quickly taken out, homogenized in 1N formic acid-acetone solution, and centrifuged in a refrigerated ultracentrifuge. The supernatant was evaporated by blowing with N2 gas, and then, the residue was again dissolved in 0.01N acetic acid, and served for determining 5-HIAA concentration by high performance liquid chromatography with electrochemical detection. The effect of the test compounds on 5-HIAA concentration was shown as % of control (5-HIAA level of non-dosed animals=100%).

[11] = system: mice; experiment: Acute toxicity; type: in vivo, mice (Std-ddY strain); conditions: 200 mg/kg orally; 7 days observation; 5 male mice
Experimental: Experiment 8 Acute toxicity
A group of 5 male mice (Std-ddY strain, 25-30 g) was used. The test compound (200 mg/kg) was orally administered to the test animal in the form of a 0.5% tragacanth solution or suspension, and for 7 days after the administration of the test compound, the lethality of animals was observed.

T2 sequence (P14842 whole entry): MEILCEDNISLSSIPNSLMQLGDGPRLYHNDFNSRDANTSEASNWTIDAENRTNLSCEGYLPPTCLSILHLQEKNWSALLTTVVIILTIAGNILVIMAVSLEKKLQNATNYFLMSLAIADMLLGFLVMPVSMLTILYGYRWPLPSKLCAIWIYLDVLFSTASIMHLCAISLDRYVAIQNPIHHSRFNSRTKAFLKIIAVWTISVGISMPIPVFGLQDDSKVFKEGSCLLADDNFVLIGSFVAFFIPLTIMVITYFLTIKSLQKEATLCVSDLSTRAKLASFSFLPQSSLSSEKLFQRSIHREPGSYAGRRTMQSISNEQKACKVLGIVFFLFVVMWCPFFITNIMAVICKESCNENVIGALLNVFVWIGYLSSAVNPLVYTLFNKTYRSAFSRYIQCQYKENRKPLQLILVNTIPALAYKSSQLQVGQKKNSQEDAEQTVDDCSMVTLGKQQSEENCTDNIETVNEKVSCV
T1 sequence (P61169 whole entry): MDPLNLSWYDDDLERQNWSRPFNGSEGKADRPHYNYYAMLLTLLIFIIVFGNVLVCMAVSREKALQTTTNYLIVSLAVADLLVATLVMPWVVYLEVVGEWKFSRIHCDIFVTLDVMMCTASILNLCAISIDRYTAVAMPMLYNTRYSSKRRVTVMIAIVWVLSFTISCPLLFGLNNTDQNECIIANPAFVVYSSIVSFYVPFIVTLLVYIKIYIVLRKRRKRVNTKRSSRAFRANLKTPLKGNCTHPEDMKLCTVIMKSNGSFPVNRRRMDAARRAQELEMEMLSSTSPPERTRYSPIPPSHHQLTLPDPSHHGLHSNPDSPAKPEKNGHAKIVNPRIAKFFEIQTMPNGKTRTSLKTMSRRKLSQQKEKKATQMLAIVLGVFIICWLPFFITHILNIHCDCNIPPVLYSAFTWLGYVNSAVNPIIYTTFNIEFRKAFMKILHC

In the case of `c1ccc(CN2CCN(c3nc4c(c(-c5ccccc5)n3)CCCC4)CC2)cc1` [4-phenyl-2-(4-benzyl-1-piperazinyl)-5,6,7,8-tetrahydroquinazoline], the Hypoglycemic activity [1] is listed as “weak hypoglycemic activity”.
For `Fc1ccc(-c2nc(N3CCNCC3)nc3c2CCC3)cc1` [Ex. 1, 2-(1-piperazinyl)-4-(4-fluorophenyl)-6,7-dihydro-5H-cyclopentapyrimidine], the inhibition in vivo at 3 mg/kg [2] was 60.7%, the “Improvement of scopolamine-induced deficit of spontaneous alternation” value ([3]; 0.02 mg/kg i.p.) was 47.8% and the “Improvement of scopolamine-induced deficit of spontaneous alternation” value ([3]; 0.5 mg/kg i.p.) was 51.9%. The “Improvement of cycloheximide-induced amnesia (step-down latency)” value ([4]; 0.5 mg/kg i.p.) was 33.8%, the “Improvement of cycloheximide-induced amnesia (step-down latency)” value ([4]; 2.0 mg/kg i.p.) was 65.8% and the “Prolongation rate of survival time” value [5] was 36.7%. The pIC50 [6] was 6.04, the pIC50 [7] was 6.12 and the pIC50 [8] was 7.54. For the same compound, the pIC50 [9] was 5.96, the response vs control in vivo at 100 mg/kg [10] was 150% and the Lethality of animals [11] was “no animal was died”.
